# Columns and labels:
# [1] = CC50 assay (CellTiter-Glo) in Huh-7 HCV replicon cells; assay type: cell-based, human; details: human, 3 days incubation, CellTiter-Glo readout
# Outline: (§1)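 Huh-7 cells carrying an HCV replicon (6000/well) exposed to 3-fold serial compound dilutions for 3 days at 37 °C, final DMSO 0.5% where used. EC50 read as replicon luciferase luminescence after cell lysis; CC50 from CellTiter-Glo luminescence after 10 min at room temperature.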
# [2] = tested on: HCV replicon in human hepatoma Huh-7 cell line; assay: Anti-HCV replicon assay (EC50, luciferase); assay type: cell-based; details: Hepatitis C virus, Huh-7, 72 h
# Outline: as §1
Compound,CC50 at 3 days [1],EC50 [2]
"N[C@@H](CO)C(=O)Nc1ccc(-c2ccc3nc(NCc4ccc(S(N)(=O)=O)cc4)nc(NCC(F)(F)F)c3n2)cc1 [Example 156, (S)-4-{[4-(2,2,2-Trifluoroethyl)-amino-6-(4-((2-hydroxy-1-aminoethyl)-carboxamido)-phenyl)-pyrido[3,2-d]pyrimidin-2-ylamino]-methyl}-benzenesulfonamide]",< 5 µM,< 0.1 µM
"COCCOc1nc(NCc2ccc(S(N)(=O)=O)cc2)nc2ccc(-c3ccc(F)c(Cl)c3)nc12 [Example 236, 4-{[6-(3-Chloro-4-fluoro-phenyl)-4-(2-methoxy-ethoxy)-pyrido[3,2-d]pyrimidin-2-ylamino]-methyl}-benzenesulfonamide]",5 to 25 µM,< 0.1 µM
"NS(=O)(=O)c1ccc(CNc2nc(NCC(F)(F)F)c3nc(-c4ccc(N5CCC(O)C5=O)cc4)ccc3n2)cc1 (stereo not drawn) [Example 179, 4-{[6-[4-(3-Hydroxy-2-oxo-pyrrolidin-1-yl)-phenyl]-4-(2,2,2-trifluoro-ethylamino)-pyrido[3,2-d]pyrimidin-2-ylamino]-methyl}-benzenesulfonamide]",> 25 µM,< 0.1 µM
"CCOc1nc(NCc2ccon2)nc2ccc(-c3ccc(F)cc3)nc12 [Example 116, [4-Ethoxy-6-(4-fluoro-phenyl)-pyrido[3,2-d]pyrimidin-2-yl]-isoxazol-3-ylmethyl-amine]",> 25 µM,< 0.1 µM
"CCOc1nc(NCc2nccs2)nc2ccc(-c3ccc(F)cc3)nc12 [Example 114, [4-Ethoxy-6-(4-fluoro-phenyl)-pyrido[3,2-d]pyrimidin-2-yl]-thiazol-2-ylmethyl-amine]",5 to 25 µM,< 0.1 µM
"CCOc1nc(NCc2ccc(F)cc2)nc2ccc(-c3ccc(C(=O)NCCN(C)C)cc3)nc12 [Example 63, N-(2-Dimethylamino-ethyl)-4-[4-ethoxy-2-(4-fluoro-benzylamino)-pyrido[3,2-d]pyrimidin-6-yl]-benzamide]",< 5 µM,< 0.1 µM
"CCOc1nc(NCc2c(F)cc(OC)cc2F)nc2ccc(-c3ccc(F)cc3)nc12 [Example 36, (2,6-Difluoro-4-methoxy-benzyl)-[4-ethoxy-6-(4-fluoro-phenyl)-pyrido[3,2-d]pyrimidin-2-yl]-amine]",5 to 25 µM,< 0.1 µM
"CCOc1nc(NCc2cc(F)cc(F)c2)nc2ccc(-c3ccc(F)cc3)nc12 [Example 45, (3,5-Difluoro-benzyl)-[4-ethoxy-6-(4-fluoro-phenyl)-pyrido[3,2-d]pyrimidin-2-yl]-amine]",5 to 25 µM,< 0.1 µM
"N#Cc1ccc(-c2ccc3nc(NCc4ccc(S(N)(=O)=O)cc4)nc(NCC(F)(F)F)c3n2)cc1 [Example 212, 4-{[6-(4-Cyano-phenyl)-4-(2,2,2-trifluoro-ethylamino)-pyrido[3,2-d]pyrimidin-2-ylamino]-methyl}-benzenesulfonamide]",5 to 25 µM,< 0.1 µM
"C[C@H](N)C(=O)Nc1ccc(-c2ccc3nc(NCc4ccc(S(N)(=O)=O)cc4)nc(NCC(F)(F)F)c3n2)cc1 [Example 221, 2-Amino-N-{4-[2-(4-sulfamoyl-benzylamino)-4-(2,2,2-trifluoro-ethylamino)-pyrido[3,2-d]pyrimidin-6-yl]-phenyl}-propionamide]",> 25 µM,< 0.1 µM
"NS(=O)(=O)c1ccc(CNc2nc(OC3CCC3)c3nc(-c4ccc(F)cc4)ccc3n2)cc1 [Example 111, 4-{[4-Cyclobutoxy-6-(4-fluoro-phenyl)-pyrido[3,2-d]pyrimidin-2-ylamino]-methyl}-benzenesulfonamide]",5 to 25 µM,< 0.1 µM
"COc1nc(NCc2ccc(F)cc2)nc2ccc(-c3ccc(F)cc3)nc12 [Example 26, (4-Fluoro-benzyl)-[6-(4-fluoro-phenyl)-4-methoxy-pyrido[3,2-d]pyrimidin-2-yl]-amine]",> 25 µM,< 0.1 µM
"COc1cc(-c2ccc3nc(NCc4ccc(S(N)(=O)=O)cc4)nc(NCC(F)(F)F)c3n2)ccn1 [Example 172, 4-{[6-(2-Methoxy-pyridin-4-yl)-4-(2,2,2-trifluoro-ethylamino)-pyrido[3,2-d]pyrimidin-2-ylamino]-methyl}-benzenesulfonamide]",5 to 25 µM,< 0.1 µM
"CC(C)Nc1nc(NCCN2CCOCC2)nc2ccc(-c3ccc(F)cc3)nc12 [Example 56, 6-(4-Fluoro-phenyl)-N4-isopropyl-N2-(2-morpholin-4-yl-ethyl)-pyrido[3,2-d]pyrimidine-2,4-diamine]",5 to 25 µM,0.25 to 2 µM
"CCOc1nc(NCc2ccc(F)cc2)nc2ccc(-c3ccc(NC(=O)C(C)(C)N)cc3)nc12 [Example 105, 2-Amino-N-{4-[4-ethoxy-2-(4-fluoro-benzylamino)-pyrido[3,2-d]pyrimidin-6-yl]-phenyl}-2-methyl-propionamide]",< 5 µM,< 0.1 µM
"Fc1ccc(CNc2nc(NCc3cccnc3)c3nc(-c4ccc(F)cc4)ccc3n2)cc1 [Example 31, N2-(4-Fluoro-benzyl)-6-(4-fluoro-phenyl)-N4-pyridin-3-ylmethyl-pyrido[3,2-d]pyrimidine-2,4-diamine]",5 to 25 µM,< 0.1 µM
"CCOc1nc(NCc2ccc(S(N)(=O)=O)cc2)nc2ccc(-c3ccc(NC(=O)[C@@H](N)[C@H](C)O)cc3)nc12 [Example 226, 2-Amino-N-{4-[4-ethoxy-2-(4-sulfamoyl-benzylamino)-pyrido[3,2-d]pyrimidin-6-yl]-phenyl}-3-hydroxy-butyramide]",> 25 µM,< 0.1 µM
"NS(=O)(=O)c1ccc(CNc2nc(NCC(F)(F)F)c3nc(-c4ccnnc4)ccc3n2)cc1 [Example 203, 4-{[6-Pyridazin-4-yl-4-(2,2,2-trifluoro-ethylamino)-pyrido[3,2-d]pyrimidin-2-ylamino]-methyl}-benzenesulfonamide]",> 25 µM,< 0.1 µM
"CC(C)Nc1nc(NCc2ccccn2)nc2ccc(-c3ccc(F)cc3)nc12 [Example 53, 6-(4-Fluoro-phenyl)-N4-isopropyl-N2-pyridin-2-ylmethyl-pyrido[3,2-d]pyrimidine-2,4-diamine]",5 to 25 µM,0.1 to 0.25 µM
"Fc1ccc(-c2ccc3nc(NCc4ccccn4)nc(NCC(F)(F)F)c3n2)cc1 [Example 243, 6-(4-Fluoro-phenyl)-N2-pyridin-2-ylmethyl-N4-(2,2,2-trifluoro-ethyl)-pyrido[3,2-d]pyrimidine-2,4-diamine]",5 to 25 µM,< 0.1 µM
"CCOc1nc(N[C@H](C)c2ccccc2)nc2ccc(-c3ccc(F)cc3)nc12 [Example 113, [4-Ethoxy-6-(4-fluoro-phenyl)-pyrido[3,2-d]pyrimidin-2-yl]-(1-phenyl-ethyl)-amine]",> 25 µM,< 0.1 µM
"CCOc1nc(NCc2ccc(S(N)(=O)=O)cc2)nc2ccc(-c3ccc(C(=O)NC4(C#N)CC4)cc3)nc12 [Example 143, 4-{[4-Ethoxy-6-(4-(N-(1-cyano-1-cyclopropyl)-carbamoyl)phenyl)-pyrido[3,2-d]pyrimidin-2-ylamino]-methyl}-benzenesulfonamide]",5 to 25 µM,< 0.1 µM
"CS(=O)(=O)CCNc1nc(NCc2ccc(S(N)(=O)=O)cc2)nc2ccc(-c3ccc(F)cc3)nc12 [Example 153, 4-{[4-(2-Methanesulfonylethyl)-amino-6-(4-fluorophenyl)-pyrido[3,2-d]pyrimidin-2-ylamino]-methyl}-benzenesulfonamide]",< 5 µM,< 0.1 µM
"CCOc1nc(NCc2ccc(S(N)(=O)=O)cc2)nc2ccc(-c3ccc(NC(=O)[C@H](C)N)cc3)nc12 [Example 146, 2-Amino-N-{4-[4-ethoxy-2-(4-sulfamoyl-benzylamino)-pyrido[3,2-d]pyrimidin-6-yl]-phenyl}-propionamide]",5 to 25 µM,< 0.1 µM
"O=C(Nc1ccc(-c2ccc3nc(NCc4ccc(F)cc4)nc(NCC(F)(F)F)c3n2)cc1)C1(O)CC1 [Example 278, 1-Hydroxy-cyclopropanecarboxylic acid {4-[2-(4-fluoro-benzylamino)-4-(2,2,2-trifluoro-ethylamino)-pyrido[3,2-d]pyrimidin-6-yl]-phenyl}-amide]",5 to 25 µM,< 0.1 µM
"NS(=O)(=O)c1ccc(CNc2nc(NCC(F)(F)F)c3nc(-c4ccc(NC(=O)C5(O)CC5)cc4)ccc3n2)cc1 [Example 180, 1-Hydroxy-cyclopropanecarboxylic acid {4-[2-(4-sulfamoyl-benzylamino)-4-(2,2,2-trifluoro-ethylamino)-pyrido[3,2-d]pyrimidin-6-yl]-phenyl}-amide]",> 25 µM,< 0.1 µM
"NS(=O)(=O)c1ccc(CNc2nc(NCC(F)F)c3nc(-c4ccc(F)cc4)ccc3n2)cc1 [Example 151, 4-{[4-(2,2-Difluoroethyl)-amino-6-(4-fluorophenyl)-pyrido[3,2-d]pyrimidin-2-ylamino]-methyl}-benzenesulfonamide]",< 5 µM,< 0.1 µM
"CCOc1nc(NCc2ccc(F)cc2)nc2ccc(-c3cnc(NC(=O)C4CC4)nc3)nc12 [Example 80, Cyclopropanecarboxylic acid {5-[4-ethoxy-2-(4-fluoro-benzylamino)-pyrido[3,2-d]pyrimidin-6-yl]-pyrimidin-2-yl}-amide]",5 to 25 µM,< 0.1 µM
"CN1CC[C@H](C(=O)Nc2ccc(-c3ccc4nc(NCc5ccc(S(N)(=O)=O)cc5)nc(NCC(F)(F)F)c4n3)cc2F)C1 [Example 177, 1-Methyl-pyrrolidine-3-carboxylic acid {2-fluoro-4-[2-(4-sulfamoyl-benzylamino)-4-(2,2,2-trifluoro-ethylamino)-pyrido[3,2-d]pyrimidin-6-yl]-phenyl}-amide]",5 to 25 µM,< 0.1 µM
"CCOc1nc(NCc2ccc(S(N)(=O)=O)cc2)nc2ccc(-c3ccc(C(=O)NC4CC4)cc3)nc12 [Example 144, 4-{[4-Ethoxy-6-(4-(N-cyclopropylcarbamoyl)phenyl)-pyrido[3,2-d]pyrimidin-2-ylamino]-methyl}-benzenesulfonamide]",5 to 25 µM,< 0.1 µM

# Reference: patent US8729089B2 (Gilead Sciences, Inc., priority 2006, dated 2014)
